Laboratory results as given in paper PMC12188386, “Selective CBP/EP300 Bromodomain Inhibitors: Novel Epigenetic Tools to Counter TNF-α-Driven Inflammation” (JACS Au, 2025).

Assays:
[1] = biological target: BRD4(1) (Homo sapiens, UniProt O60885); assay: BROMOscan bromoKdELECT; type: binding; conditions: commercial Bromoscan assay
Experimental: was used as the calibration curve. To obtain saturated solutions of the compounds of interest, in duplicates 4.4 µL of a 10 or 5 mM stock in DMSO was added to 436 µL Buffer (PBS, pH = 7.4), to give a final concentration of 100 or 50 µM. Samples were incubated on a shaker (500 rpm) at 37°C for 90 minutes and then filtered (Millex-GV 13 mm, 0.22 µm). 304 µL of the filtrate was mixed with 76 µL of acetonitrile on a dilution plate, from which 350 µL was transferred to a UV-plate and UV-absorption was read using a SpectraMax M5 (Molecular devices). The absorbance was blank-corrected and compared to the calibration curve to […]
solubility. The wavelengths used for the calibration curve are available in Table S4.
Sample preparation in CAPTISOL® […]
lower solubility (2) compounds respectively in a 12.5 w/v% CAPTISOL® solution in water. In a precisely tared vial, required amounts of compounds and CAPTISOL® were weighed out as solids. Based on the known density of 12.5 % CAPTISOL® solution (d = 1.05755 g/mL at 25 °C), the precise weight of the resulting solution and so the required amount of water by weight was calculated. The water was added portion wise with agitation, vortexing and sonication cycles in between additions. The saturated solutions were then filtered (Millex-GV 13 mm, 0.22 µm). In duplicates, aliquots of the filtrates were taken and diluted with blank 12.5 % CAPTISOL® water solution in either a 1:14 (higher sol. compounds) or 1:7 (lower sol. compounds) ratio, 350 µL was transferred to a 96-Well Plate (Greiner, UV-star) then UV absorption (240-400 nm, 10 nm steps) was measured using a SpectraMax M5 (Molecular devices). […] The calculated concentrations are available in Table S4. […]
The bromodomain concentration in the eluates was measured by qPCR.
Test compounds were prepared as 1000X stocks in DMSO and distributed by acoustic transfer (non-contact dispensing). […] KDs were determined using an 11-point 3-fold compound dilution series with one DMSO control point, and were calculated with a standard dose-response curve using the Hill equation: […]

[2] = system: myc expression in LP1 cells; assay: myc mRNA expression by RT-qPCR; type: cell-based; conditions: 4 h treatment of LP1 cells with 1 μM compound
Experimental: For myc expression, 1x10^6 LP1 cells were plated the day prior to a 4 h treatment with compounds at a final DMSO concentration of 0.1 %. […]
In all cases, total
RNA was extracted using the NucleoSpin® RNA kit (Machery -Nagel) and used for cDNA synthesis with the High -Capacity cDNA Reverse Transcription kit (Applied Biosystems). RT-qPCR reactions were performed using PowerSYBR™ green PCR Master Mix (Applied Biosystems) and a LightCycler® 480 (Roche). cDNA was denatured for 10 min at 95 °C followed by 40 cycles of 15 s at 95 °C and 1 min at 60 °C. Cp values were determined as the maximum of the second derivative and target gene expression was compared to that of hprt from the same sample using the 2-ΔCp method. Gene expression was then normalized to the average of the control samples from the same day, or all biological replicates. […]

[3] = biological target: T1, CBP-BRD (ePL-CBP-BRD in HEK293T cells) (Homo sapiens, UniProt Q92793); assay: CBP-BRD InCELL Pulse cellular target engagement; type: cell-based; conditions: 1 h compound treatment of HEK293T cells transiently transfected with ePL-CBP-BRD
T1 construct: (residues 1083-1197) was cloned into the pICP-ePL-C vector; expressed in transfected cells; host or cells: HEK293T, transient transfection (vector pICP-ePL-C, DiscoverX 94-4007S)
Experimental: The CBP-BRD (residues 1083-1197) was cloned into the pICP-ePL-C vector (DiscoverX, 94-4007S) between the EcoRI and XhoI restriction sites using the hexahistidine-CREBBP plasmid as a template. 5x10^5 HEK293T cells were plated on a 6 well plate the day prior to transfection with 1.5 μg ePL-CBP-BRD plasmid using 5 μl FugeneHD (Promega E2311) in 500 μl optiMEM® (Gibco, 31985062) . Proteins were allowed to express for 20 h before cells were trypsinized, washed and resuspended in low -serum medium (DMEM with 5 % FBS). Compounds were serially diluted in DMSO at 100x, pre-diluted to 5x in complete medium (DMEM with 10 % FBS and 1 % P/S), then added to a suspension of 5x10^3 cells, giving a final DMSO concentration of 1 %. Treated cells were incubated for 1 h at 37 °C in an incubator, followed by a heat shock for 3 min at 45 °C and recovery for 3 min at 22 °C using a thermocycler with a ramp rate of 1 °C/s (SimpliAmp, Thermo Fisher). Stab ilized ePL tag was quantified using the InCELL detecti n Kit isc verX as per the manufacturer’s pr t c usin the -10 working detection solution and a 2 h incubation before reading luminescence with a SpectraMax M5 plate reader (Molecular devices). […]

T1 sequence (Q92793 1083-1197): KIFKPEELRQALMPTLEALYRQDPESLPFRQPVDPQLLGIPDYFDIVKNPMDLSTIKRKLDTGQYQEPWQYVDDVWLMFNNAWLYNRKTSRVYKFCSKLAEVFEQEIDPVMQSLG

SMILES | Kd [1] [µM] | myc mRNA expression [2] | cellular binding to CBP-BRD (InCELL Pulse) [3]
Cc1cc2c(NC(=O)c3cc(NC(=O)[C@H]4CCCO4)cc(-c4ccn(C)n4)c3)cccc2nn1 [Compound 5] | 5.1 | significantly decreased the expression level of myc | able to engage the target very similarly
Cc1cc2c(NC(=O)c3cc(NC(=O)c4ccco4)cc(-c4ccn(C)n4)c3)cccc2nn1 [Compound 2] | 3.7 | significantly decrease myc expression levels | significant improvement in terms of cellular target engagement
CC(=O)Nc1cc(NC(=O)c2ccco2)cc(C(=O)Nc2cccc3nnc(C)cc23)c1 [Compound 1] | 5.8 | not observed | no ligand engagement in cellulo
